Results on one compound are retold here after article PMC10059057, “Antileishmanial and Antiplasmodial Activities of Secondary Metabolites from the Root of Antrocaryon klaineanum Pierre (Anacardiaceae)” (Molecules, 2023).

The test system of one series is Leishmania. Further details: method as in PMID 30663371. Particulars: another study; cited from earlier work.
For the next series, the target named is cholinesterase. More on the design: method as in PMID 24949478. As to conditions: cited from earlier work.
A short description of series [1]: In vitro cytotoxicity assay (resazurin) on Raw 264.7 macrophage cells. The series is classed as cell-based, murine. Particulars: mouse. The procedure:
RAW 264.7 cells were obtained from RIKEN BioResource Centre Cell Bank (Tsukuba, Japan) and cultured in Dulbecco’s modified Eagle medium (DMEM) containing 1% penicillin–streptomycin and 10% FBS under 5% CO2 and humidified atmosphere at 37 °C and sub-cultured every 72 h.
(§1) A stock solution was prepared at 100 mg/mL for each extract and fraction and at 50 mg/mL for isolated compound in 100% DMSO (Sigma–Aldrich, Munich, Germany). Master plates were then prepared by mixing 2 μL of each stock solution with 198 μL of fresh incomplete RPMI 1 640 culture medium to yield a concentration of 1 mg/mL for extract and fraction and of 0.5 mg/mL (1% DMSO) followed by a 5-fold serial dilution. Extracts and fractions were tested at concentrations ranging from 0.16 to 100 μg/mL, and isolated compounds at concentrations ranging from 0.08 to 50 μg/mL.
The murine macrophages, Raw 264.7 cells were grown in a T-25 cm^2 flask containing the complete Dulbecco’s modified Eagle’s medium (Sigma–Aldrich, Munich, Germany) supplemented with 10% FBS (Sigma–Aldrich, Munich, Germany), 1% non-essential amino acids, and 1% (v/v) penicillin–streptomycin (Sigma–Aldrich, Munich, Germany) and incubated at 37° in a humidified atmosphere containing 5% CO2. For the experiments, 80–90% confluent cell culture was trypsinized, counted using a Neubauer haemacytometer, and seeded into a 96-well cell culture treated flat-bottomed plate (SARSTEDT, Inc. Newton, NC 28658, USA) at a cell density of 10^4 cells/well. Plates were incubated overnight to allow cell adhesion. Cells were then treated with serially diluted concentrations of crude extract, fractions, and isolated compounds for 48 h. Podophyllotoxin (Sigma–Aldrich, Munich, Germany) was used as positive control with the highest concentration of 10 μM. Afterwards, 10 μL of resazurin solution (0.15 mg/mL prepared in PBS) was added to each well, and the plates were additionally incubated for 4 h. Of important note, resazurin is a nonfluorescent, nontoxic, and cell-permeable blue dye which is used to quantify cell viability following its conversion into the highly fluorescent pink dye resorufin in response to changes in the reducing environment within the cytosol of the cell. The level of fluorescence that positively correlates with cell viability was measured using a Magellan Infinite M200 plate reader (Tecan, Germany) at an excitation wavelength of 530 nm and an emission wavelength of 590 nm. The growth proliferation percentage of cells was calculated with respect to the negative control. The concentration–response curves were plotted using inhibitory percentages versus the logarithm of the drug concentration to determine the concentration of drug that reduces cell viability by 50% (CC50) using GraphPad Prism 8.0 software. Selectivity indices (SI) [SI = CC50/IC50] were determined for each inhibitor based on their antiparasitic activity (IC50) and cell cytotoxicity (CC50 on Raw cells). Samples with SI greater than 10 were classified as poorly toxic toward Raw cells.
On the technique in general: Resazurin is reduced to fluorescent resorufin, in cell work by metabolically active cells.

Series [2] relates to L. donovani promastigotes 1S (MHOM/SD/62/1S). Put plainly: Antileishmanial resazurin fluorimetric assay on promastigotes. As to conditions: Leishmania donovani; promastigotes, resazurin assay; read-out: L. donovani Promastigote IC50 ± SD. The series is classed as cell-based, Leishmania donovani. The procedure:
(§2) The cryopreserved chloroquine-sensitive (Pf3D7-(MRA-102)), the multi-resistant (PfDd2) of Plasmodium falciparum, and the promastigote form of Leishmania donovani strains were obtained from BEI Resources (https://www.beiresources.org/ (accessed on 16 February 2019)) and are routinely cultured at the Antimicrobial and Biocontrol Agents Unit, University of Yaoundé I.
Leishmania donovani promastiogtes were cultured in Medium 199 (Sigma, Darmstadt, Germany) supplemented with 10% Heat-Inactivated fetal Bovine Serum (HIFBS) (Sigma, Darmstadt, Germany) and 100 IU/mL penicillin/streptomycin. The culture was maintained in 75 cm^2 cell culture flask at 28 °C and sub-cultured every 72 h.
as §1
The antileishmanial activity of crude extracts, derived fractions, and isolated compounds against cultured L. donovani promastigotes was evaluated using the resazurin fluorimetric assay as described by Siqueira-Neto et al. (2010). Briefly, promastigotes from a logarithmic phase culture (4 × 10^5 cells/mL; 90 μL) were seeded in 96-well microplates and treated with 10 μL of inhibitors at different triplicate concentrations (100 µg/mL–0.16 µg/mL for extract/fractions and 50 µg/mL–0.08 µg/mL for compounds). Plates were incubated for 28 h at 28 °C, followed by the addition of […] resazurin (0.15 mg/mL in DPBS; Sigma, Darmstadt, Germany). The negative and positive controls were, respectively, 0.1% DMSO and amphotericin B (Sigma, Darmstadt, Germany) (10–0.016 μg/mL) treated wells. After an additional incubation for 44 h, plates were then read on a Magelan Infinite M200 fluorescence plate reader (Tecan, Männedorf, Switzerland) at excitation and emission wavelengths of 530 and 590 nm, respectively. For each sample, growth inhibition percentages were calculated with Microsoft Excel Software; then, from the nonlinear regression fit, concentration–response curves were generated to deduce the median inhibitory concentration (IC50) using the GraphPad Prism 8.0 software.

Series [3] relates to P. falciparum chloroquine-sensitive (Pf3D7). The series can be described thus: Antiplasmodial SYBR green I based fluorescence assay, chloroquine-sensitive strain. Type of series: cell-based. Particulars: Plasmodium falciparum; chloroquine-sensitive strain 3D7, 72 h; read-out: Pf3D7 IC50 ± SD.
Excerpt: as §2
(§3) Plasmodium falciparum strains were maintained in 60 mm sterile petri dishes containing complete RPMI 1640 medium [RPMI 1640 (Sigma Aldrich) supplemented with 0.2% sodium bicarbonate (Sigma Aldrich), 0.5% Albumax II (Gibco), 1% hypoxanthine 100X (Gibco, Billings, MT, USA), 25 mM HEPES, and 0.04% gentamicin (Sigma Aldrich)] with fresh O^+ erythrocytes of healthy human volunteers suspended at 4% haematocrit (v/v) and incubated at 37 °C in a 5% CO2 humidified atmosphere. The medium was replaced daily with fresh complete medium to propagate the culture. Ten percent (10%) Giemsa-stained thin blood smears were examined microscopically under immersion oil to monitor cell-cycle transition and parasitaemia.
as §1
(§4) The use of mixed-stage cultures can enable the test molecules to interact with all the three stages (ring, trophozoite, and schizont) found during a 48-h life cycle of P. falciparum in culture. Moreover, starting the experiment with a synchronized ring stage culture provides the advantage of monitoring the growth inhibitory effect of test samples without a rise-up in parasitemia during the ring–trophozoite–schizont transitions. For this particular reason, parasites were synchronized at the ring stage by serial treatment with 5 % sorbitol for two days prior to each experiment with respect to Lambros and Vanderberg, 1979 [44] protocol.
(§5) Drug sensitivity assay was carried out in 96-well microtitration plates using the SYBR green I based fluorescence assay (Smilkstein et al., 2004). […] The fact that human red blood host cells are anucleate allows the use of SYBR green for the proper monitoring of the growth of the malarial parasite.
(§6) The 96 wells flat-bottom assay plates with sorbitol-synchronized ring stage parasites (haematocrit: 1%, parasitaemia: 2%, 90 μL) were incubated in the presence of 10 µL of pre-diluted extracts, fractions, isolated compounds, and reference drugs [Chloroquine and Artemisinin (Sigma–Aldrich, Munich, Germany)] at different triplicate concentrations (100 µg/mL–0.16 µg/mL for extract/fractions and 50 µg/mL–0.08 µg/mL for compounds). After an incubation period of 72 h at 37 °C, 100 μL of the SYBR Green I solution prepared in a lysis buffer (0.2 µL of 10,000× SYBR Green I per mL of lysis buffer) consisting of Tris (20 mM; pH 7.5), EDTA (5 mM), saponin (0.008%; m/v), and Triton X-100 (0.08%; v/v) was added to each well, mixed twice gently with a multi-channel pipette, and incubated in the dark at 37 °C for 1 h. Fluorescence was measured using the microplate reader Infinite M200 (Tecan) at an excitation and emission wavelength of 485 and 538 nm, respectively. […] The data analysis was performed with GraphPad Prism 8.0 software, fitting by nonlinear regression, and concentration–response curves were generated to determine the median inhibitory concentration (IC50) for each sample.

Series [4] concerns P. falciparum chloroquine-resistant (PfDd2). Put plainly: Antiplasmodial SYBR green I based fluorescence assay, chloroquine-resistant strain. Type of series: cell-based. As to conditions: Plasmodium falciparum; chloroquine-resistant strain Dd2, 72 h; read-out: PfDd2 IC50 ± SD.
Excerpt: as §2, §3, §1, §4, §5, §6
The resistance index (RI) was determined as the ratio of the IC50 of the samples on the multi-resistant strain Dd2 and the IC50 on the chloroquine-sensitive strain 3D7 as reported by Douanla et al..

Series [5] relates to Leishmania donovani strain MHOM/IN/1983/AG83. More on the design: method as in PMID 24949478. As to conditions: scopoletin from leaves of Canarium patentinervium; cited from earlier work.

≈ marks a conversion by molar mass, not a printed value.

The CC50 is the concentration giving 50% cytotoxicity. Low readings indicate greater toxicity to the cells, high ones lower toxicity to the cells. The IC50 is the midpoint of a concentration-inhibition curve. Regarding `COc1cc2ccc(=O)oc2cc1O` [Scopoletin (3), 7-hydroxy-6-methoxycoumarin], the “antileishmanial activity IC50” value in the series with Leishmania is recorded as 6.804 µg/mL. For the same compound, the “anticholinesterase activity IC50” value at cholinesterase is on record as 51 µg/mL. This compound also had a CC50 at 48 h in series [1] of more than 500 µg/mL. Also, the results for the IC50 in series [2], in series [3] and in series [4] were 6.4 ± 0.8 µg/mL (≈ 33.3 µM), more than 50 µg/mL and more than 50 µg/mL, respectively. Besides, the “IC50 against Leishmania donovani strain MHOM/IN/1983/AG83” value in series [5] is recorded as 163.3 µg/mL (≈ 850 µM).
